In publication PMC6212638, “In silico identification and biochemical characterization of the human dicarboxylate clamp TPR protein interaction network” (FEBS Open Bio, 2018):
Blank lines part the entries; values can stand above or below the molecule they belong to. Peptide text beside a SMILES is read from it.

T1: FKBP51 (Homo sapiens, UniProt Q13451)
T1 sequence (Q13451 1-457): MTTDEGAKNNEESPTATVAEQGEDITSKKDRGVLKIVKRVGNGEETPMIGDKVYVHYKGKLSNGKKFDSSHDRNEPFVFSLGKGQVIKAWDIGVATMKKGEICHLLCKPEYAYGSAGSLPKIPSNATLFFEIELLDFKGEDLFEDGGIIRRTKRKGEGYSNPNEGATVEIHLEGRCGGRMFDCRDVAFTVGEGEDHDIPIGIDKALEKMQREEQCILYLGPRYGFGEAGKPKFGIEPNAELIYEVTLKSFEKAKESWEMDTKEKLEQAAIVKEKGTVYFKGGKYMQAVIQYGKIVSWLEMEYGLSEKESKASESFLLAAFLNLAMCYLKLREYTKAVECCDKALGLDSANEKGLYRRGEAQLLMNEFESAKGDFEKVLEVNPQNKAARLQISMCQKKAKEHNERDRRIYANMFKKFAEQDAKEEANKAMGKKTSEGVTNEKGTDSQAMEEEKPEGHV

T2: DNAAF2 (human, UniProt Q9NVR5 1-837)
T2 construct: prey of the pull-down; also called dynein axonemal assembly factor 2; source: E. coli BL21, purified as GST fusion (GSTrap), GST removed with PreScission protease
T2 sequence (looked up): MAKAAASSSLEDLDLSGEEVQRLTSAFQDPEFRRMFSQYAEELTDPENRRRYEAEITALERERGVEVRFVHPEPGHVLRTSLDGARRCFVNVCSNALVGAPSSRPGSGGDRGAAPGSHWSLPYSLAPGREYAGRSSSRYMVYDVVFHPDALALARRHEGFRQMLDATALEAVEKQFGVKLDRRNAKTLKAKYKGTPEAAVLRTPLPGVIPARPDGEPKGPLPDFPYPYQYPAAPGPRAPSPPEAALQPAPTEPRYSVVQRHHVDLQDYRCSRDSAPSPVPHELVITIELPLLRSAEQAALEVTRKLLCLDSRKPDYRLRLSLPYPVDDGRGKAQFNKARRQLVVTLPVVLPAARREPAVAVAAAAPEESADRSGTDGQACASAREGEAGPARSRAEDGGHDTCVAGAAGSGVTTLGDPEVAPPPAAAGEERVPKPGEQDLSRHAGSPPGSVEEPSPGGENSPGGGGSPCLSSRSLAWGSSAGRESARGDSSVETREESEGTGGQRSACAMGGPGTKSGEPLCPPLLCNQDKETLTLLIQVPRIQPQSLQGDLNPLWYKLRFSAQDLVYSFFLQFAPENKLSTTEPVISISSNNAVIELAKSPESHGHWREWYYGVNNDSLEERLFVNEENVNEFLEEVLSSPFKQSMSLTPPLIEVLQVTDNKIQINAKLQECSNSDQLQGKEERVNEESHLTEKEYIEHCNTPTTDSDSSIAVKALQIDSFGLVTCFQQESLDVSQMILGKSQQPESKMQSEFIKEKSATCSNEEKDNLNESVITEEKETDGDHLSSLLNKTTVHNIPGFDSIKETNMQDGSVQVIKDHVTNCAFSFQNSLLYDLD

T3: NADSYN1 (human, UniProt Q6IA69 1-706)
T3 construct: prey of the pull-down; also called Nicotinamide adenine dinucleotide synthase 1; source: E. coli BL21, purified as GST fusion (GSTrap), GST removed with PreScission protease
T3 sequence (looked up): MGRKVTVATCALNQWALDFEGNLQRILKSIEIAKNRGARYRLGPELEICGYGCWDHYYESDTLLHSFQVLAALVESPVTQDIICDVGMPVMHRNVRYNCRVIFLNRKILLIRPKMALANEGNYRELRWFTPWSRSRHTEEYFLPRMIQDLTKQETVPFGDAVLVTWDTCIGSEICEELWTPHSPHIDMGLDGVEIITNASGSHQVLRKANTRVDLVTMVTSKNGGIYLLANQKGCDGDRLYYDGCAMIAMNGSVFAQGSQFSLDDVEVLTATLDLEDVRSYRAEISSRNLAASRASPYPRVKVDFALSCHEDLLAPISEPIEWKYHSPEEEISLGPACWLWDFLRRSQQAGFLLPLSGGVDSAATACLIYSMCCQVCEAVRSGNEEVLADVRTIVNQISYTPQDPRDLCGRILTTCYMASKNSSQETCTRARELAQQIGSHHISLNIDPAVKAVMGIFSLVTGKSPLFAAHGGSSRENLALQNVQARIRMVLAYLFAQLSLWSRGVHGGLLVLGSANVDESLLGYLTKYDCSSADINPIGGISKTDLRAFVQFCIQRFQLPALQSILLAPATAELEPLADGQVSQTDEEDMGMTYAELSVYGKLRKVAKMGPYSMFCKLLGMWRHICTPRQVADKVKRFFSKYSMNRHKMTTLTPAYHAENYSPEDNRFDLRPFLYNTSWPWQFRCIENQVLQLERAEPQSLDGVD

B1: GST–AIP (natural protein, human, UniProt O00170 1-330, looked up)
chain: MADIIARLREDGIQKRVIQEGRGELPDFQDGTKATFHYRTLHSDDEGTVLDDSRARGKPMELIIGKKFKLPVWETIVCTMREGEIAQFLCDIKHVVLYPLVAKSLRNIAVGKDPLEGQRHCCGVAQMREHSSLGHADLDALQQNPQPLIFHMEMLKVESPGTYQQDPWAMTDEEKAKAVPLIHQEGNRLYREGHVKEAAAKYYDAIACLKNLQMKEQPGSPEWIQLDQQITPLLLNYCQCKLVVEEYYEVLDHCSSILNKYDDNVKAYFKRGKAHAAVWNAQEAQADFAKVLELDPALAPVVSRELRALEARIRQKDEEDKARFRGIFSH
notes: bait of the GST pull-down; source: E. coli BL21, purified (GSTrap 4B, PD-10)
B2: Bcl-G (natural protein, human, UniProt Q9BZR8 1-327, looked up)
chain: MCSTSGCDLEEIPLDDDDLNTIEFKILAYYTRHHVFKSTPALFSPKLLRTRSLSQRGLGNCSANESWTEVSWPCRNSQSSEKAINLGKKKSSWKAFFGVVEKEDSQSTPAKVSAQGQRTLEYQDSHSQQWSRCLSNVEQCLEHEAVDPKVISIANRVAEIVYSWPPPQATQAGGFKSKEIFVTEGLSFQLQGHVPVASSSKKDEEEQILAKIVELLKYSGDQLERKLKKDKALMGHFQDGLSYSVFKTITDQVLMGVDPRGESEVKAQGFKAALVIDVTAKLTAIDNHPMNRVLGFGTKYLKENFSPWIQQHGGWEKILGISHEEVD
notes: Bcl-2-like protein 14 (Bcl-G), human, full-length cDNA clone; also called Bcl-2-like protein 14; source: E. coli BL21, purified as GST fusion (GSTrap), GST removed with PreScission protease
B3: GST–FKBP51 (natural protein, human, UniProt Q13451 1-457, looked up)
chain: T1 sequence (Q13451 1-457)
notes: as for B1

Assays:
HEK293 cells = details: N-terminally fluorescein-labeled peptides, 20 μM, fluorescence imaging
From the text: (§1) P < 0.05 was considered to be statistically significant. Data are presented as mean ± SEM.

Hsp90–Tom70 interaction [1] = assay: Proximity ligation assay (PLA) of Hsp90–Tom70 interaction in HEK293 cells; assay type: cell-based, human; details: non-fluorescent peptide, n = 3
From the text: as §1
(§2) In subsequent experiments, non‐fluorescent peptides were used. […] Cell impermeable Hsp90 peptide served as a treatment control.

Tom20–Tom70 interaction = assay: Mammalian two-hybrid assay (luciferase) of Tom20–Tom70 interaction in HEK293 cells; assay type: cell-based, human; details: peptide 20 μM added 4 h after transfection, 48 h, n = 3
From the text: (§3) Tom70 sequence was PCR amplified and subcloned into pACT vector of CheckMate™ mammalian two‐hybrid system (Promega, Madison, WI, USA) using SalI/NotI restriction sites, and Hsp90 and Tom20 DNA sequences were PCR amplified and subcloned into pBIND vector using SalI/NotI restriction sites. Tom70‐pACT/Hsp90‐pBIND and Tom70‐pACT/Tom20‐pBIND were co‐transfected with pLuc plasmid in a 1 : 1 : 1 molar ratio into HEK293 cells using Lipofectamine 3000 transfection reagent (Invitrogen, Carlsbad, CA, USA) according to the manufacturer's protocol. Triplicate samples in 96‐well cell culture plates Corning (Tewskbury, MA, USA) were used in each experiment. Hsp90, R9–Hsp90, Tom20 and R9–Tom20 peptides at concentration 20 μM were added 4 h after transfection. HEK293 cells were cultivated for 48 h, washed twice with PBS and lysed with PBS containing 1% Triton X‐100. Luciferase expression was detected using a luciferase assay kit from BioThema (Huddinge, Sweden) on a 96‐well plate reader from Perkin Elmer (Upplands Väsby, Stockholm, Sweden).
as §2

Hsp90–Tom70 interaction [2] = assay: Mammalian two-hybrid assay (luciferase) of Hsp90–Tom70 interaction in HEK293 cells; assay type: cell-based, human; details: peptide 20 μM added 4 h after transfection, 48 h, n = 3
From the text: as §3, §2

FKBP51 [3] = details: cited from earlier work
From the text: Here in this study, we systematically searched the human protein database (https://www.ncbi.nlm.nih.gov/protein/) for the protein products containing Hsp70/Hsp90‐like sequence signatures at their C terminus. Sev ...

FKBP51 [4] = target: T1, FKBP51; assay: Dot-blot competition assay: HRP-conjugated peptide vs unlabeled peptide on immobilized FKBP51; details: HRP-conjugated peptide on immobilized dcTPR proteins
Method: Full‐length cDNA clones for respective proteins were obtained from IMAGE consortium (SourceBioScience, Nottingham, UK) and PCR amplified with forward and reverse primers (Table 1) containing overhangs with appropriate restriction sites and cloned into pGEX6 vectors (GE Healthcare, Uppsala, Sweden). Inserts were sequence verified, and the plasmids were transformed into BL21 Escherichia coli strain. Glutathione‐S‐transferase (GST) fusion proteins were purified from 1 L overnight culture after 2 h of induction with 1 mM IPTG. Cells were pelleted, resuspended in 1× PBS and sonicated 3 × 20 s on ice. EDTA and protease inhibitor cocktail were added to prevent proteolysis. The suspension was centrifuged for 30 min at 50 000 g to remove cell debris, and supernatant was loaded onto a 1 mL GSTrap™ 4B column (GE Healthcare). After column washing with 30 mL PBS, GST fusion proteins were eluted with 2.5 mL 10 mM glutathione in PBS. Eluate was passed through a PD‐10 column (GE Healthcare) to remove free glutathione. To prepare GST‐tag‐free proteins, we performed overnight cleavage at 4 °C with PreScission protease (GE Healthcare) followed by passage through a GSTrap column to remove free GST protein. Average yield from 1 L starting culture was 1–5 mg of purified proteins. Protein‐containing fractions were collected, checked with SDS/PAGE and kept at −20 °C.
Peptides were dissolved in HEPES‐KOH buffer pH 7.2 at concentration of 1 mg·mL^−1 and incubated with equimolar amounts of activated horseradish peroxidase (HRP) (Lightning‐link® HRP labeling kit cat. 701‐004, from Innova Biosciences) for 5 min. Reaction was quenched with 0.1 M Tris/HCl, pH 7.5 for 10 min and the products were passed through PD‐10 columns (GE Healthcare). Dot‐blot experiments were performed using GST‐tag‐free proteins applied to the nitrocellulose membrane. After blocking of membrane with 3% BSA in TBS‐T buffer for 1 h and subsequent wash with TBS‐T, HRP‐conjugated peptides (1 × 500 times dilution) were applied and incubated for 1 h. After subsequent washing (3 × 10 min, TBS‐T), membrane was dried and signals were quantified using a digital Fujifilm LAS3000 imager and LAS3000 software. In competition experiments, increasing concentrations of unlabeled peptides were co‐incubated with peptide–HRP conjugates.
Each peptide was separately coupled to HRP.

DNAAF2 = target: T2, DNAAF2; assay: pull-down; GST–AIP and GST–FKBP51 as bait, purified full-length and truncated proteins as prey; bound proteins probed by western blot with their antibodies; details: both partners purified
NADSYN1 = target: T3, NADSYN1; assay: as above; details: both partners purified
GST–AIP = target: B1; assay: as above; details: both partners purified
GST–FKBP51 = target: B3; assay: as above; details: both partners purified

Molecule: CC(C)C[C@H](NC(=O)[C@H](CO)NC(=O)[C@H](CCC(N)=O)NC(=O)[C@H](C)NC(=O)[C@H](CCCNC(=N)N)NC(=O)[C@H](CCCNC(=N)N)NC(=O)[C@H](CCCNC(=N)N)NC(=O)[C@H](CCCNC(=N)N)NC(=O)[C@H](CCCNC(=N)N)NC(=O)[C@H](CCCNC(=N)N)NC(=O)[C@H](CCCNC(=N)N)NC(=O)[C@H](CCCNC(=N)N)NC(=O)[C@@H](N)CCCNC(=N)N)C(=O)N[C@@H](C)C(=O)N[C@@H](CCC(=O)O)C(=O)N[C@@H](CC(=O)O)C(=O)N[C@@H](CC(=O)O)C(=O)N[C@H](C(=O)N[C@@H](CCC(=O)O)C(=O)O)C(C)C [R9–Tom20] (H-RRRRRRRRRAQSLAEDDVE-OH)
fluorescein staining of HEK293 cells (peptide translocation into the cells) (HEK293 cells): resulted in HEK293 cells staining | decrease of Hsp90–Tom70 interaction signal (PLA) (Hsp90–Tom70 interaction [1]): failed to inhibit | inhibition of Tom20–Tom70 interaction (mammalian two-hybrid, luciferase) (Tom20–Tom70 interaction): sensitive | inhibition of Hsp90–Tom70 interaction (mammalian two-hybrid, luciferase) (Hsp90–Tom70 interaction [2]): inhibited only by addition of R9–Hsp90 peptide

signal of HRP-conjugated peptide in dot-blot binding assay (FKBP51 [4]): did not produce any signal
Molecule: H-DDDDDDDDDD-OH [poly‐D, reference compound]
interaction with FKBP51 (FKBP51 [3]): no interaction was observed

Molecule: B1
binding result (DNAAF2): binds | binding result (NADSYN1): binds

Molecule: B2
binding result (GST–AIP): binds | binding result (GST–FKBP51): binds

Molecule: B3
binding result (DNAAF2): binds | binding result (NADSYN1): binds
